This note sets out measurements from patent US11364248B2 (AMGEN INC., priority 2017, dated 2022).

Where two headings read alike, the source gives them in different places. Some results are limits rather than exact numbers.

In one assay the target is Mcl-1/Bim interaction (Homo sapiens (Human), UniProt Q07820). As to the kind of experiment: Cell Free Mcl-1: Bim Affinity Assay (Mcl-1 HTRF). In kind it is binding. To be noted: TR-FRET, recombinant human Mcl-1(171-327), biotin-Bim(51-76); read-out: Mel-1 HTRF IC50. The procedure:
Cell Free Mcl-1: Bim Affinity Assay (Mcl-1 HTRF)
The inhibition of the Mcl-1/Bim interaction was measured using a time-resolved fluorescence resonance energy transfer (TR-FRET) assay. The recombinant human Mcl-1 (C-terminally 6×His tagged Mcl-1 containing residues 171-327) was generated at Amgen Inc (Thousand Oaks, Calif.). A biotinylated peptide derived from human Bim (residues 51-76) was purchased from CPC Scientific (San Jose, Calif.). The TR-FRET assay was conducted in a 384-well white OptiPlate™ (PerkinElmer, Waltham, Mass.) in a total volume of 40 μL. The reaction mixture contained 0.1 nM Mcl-1(171-327), 0.05 nM biotin-Bim(51-76), 0.05 nM LANCER Eu-W1024 Anti-6×His (PerkinElmer), 0.072 nM Streptavidin-Xlent (Cisbio, Bedford, Mass.), and serially diluted test compounds in the binding buffer of 20 mM Hepes, pH 7.5, 150 mM NaCl, 0.016 mM Brij©35, and 1 mM dithiothreitol. Test compounds were pre-incubated with Mcl-1(171-327) and biotin-Bim (51-76) for 60 min before addition of the detection mixture (LANCE Eu-W1024 Anti-6×His and Streptavidin-Xlent). The reaction plates were further incubated overnight and then were read on an Envision® multimode reader (PerkinElmer). Fluorescence signals were measured at 620 nm (40-nm bandwidth) and 665 nm (7.5-nm bandwidth) with a 60 μs delay after excitation at 320 nm (75-nm bandwidth). The signal ratio at 665/620 nm corresponded to the Mcl-1/Bim interaction and was used in all data analyses. The IC50 values of test compounds were determined from duplicate data by analyzing competition curves using a four-parameter sigmoidal model in GraphPad Prism (GraphPad Software, San Diego, Calif.) or in Genedata Screener® (Genedata, Basel, Switzerland).
A general note: TR-FRET usually uses a lanthanide donor and a delayed reading to cut background.

For another assay, the system named is OPM-2. Description: Cell Viability Assay (OPM-2 10 FBS). The assay is classed as cell-based, human. To be noted: OPM-2 cells, CellTiter-Glo, read-out: OPM-2 10% FBS IC50 IP. The procedure:
Cell Viability Assay (OPM-2 10 FBS)
The human multiple myeloma cell line, OPM-2, was cultured in complete growth medium containing RPMI 1640 and 10% fetal bovine serum (FBS). Cells were seeded into 384-well plates at 3000 cells/well density in complete growth medium containing 10% FBS, and incubated for 16 h with serially diluted test compounds in a 37° C. incubator with 5% CO2. Cell viability was tested using CellTiter-Glo® assay (Promega, Madison, Wis.) according to the manufacturer recommendations. Luminescence was determined using an EnVision® Multilabel plate reader 25 min after the addition of detection reagent. IC50 values were then calculated with Xlfit using a logistical 4-parameter fit model in GraphPad Prism (GraphPad Software, San Diego, Calif.) or in Genedata Screener® (Genedata, Basel, Switzerland).

Chain of Mcl-1/Bim interaction (Q07820 171-327): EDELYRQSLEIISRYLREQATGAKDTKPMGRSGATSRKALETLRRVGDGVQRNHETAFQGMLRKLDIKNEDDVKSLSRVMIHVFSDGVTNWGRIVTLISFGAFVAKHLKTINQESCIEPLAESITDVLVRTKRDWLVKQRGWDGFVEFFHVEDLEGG

One may read the IC50 as the point on the concentration scale where inhibition reaches its midpoint. `C[C@@H]1[C@@H](C)CCC[C@@H]([C@H]2OC[C@@H](N(C)C)CO2)[C@@H]2CC[C@H]2CN2C[C@@]3(CCCc4cc(Cl)ccc43)COc3ccc(cc32)C(=O)NS1(=O)=O` (relative stereo) [Example 2, (1S,3′R,6′R,7′R,11′S,12′R)-6-CHLORO-7′-(CIS-5-(DIMETHYLAMINO)-1,3-DIOXAN-2-YL)-11′,12′-DIMETHYL-3,4-DIHYDRO-2H,15′H-SPIRO[NAPHTHALENE-1,22′-[20]OXA[13]THIA[1,14]DIAZATETRACYCLO[14.7.2.0˜3,6˜.0˜19,24-]PENTACOSA[16,18,24]TRIEN]-15′-ONE 13′,13′-DIOXIDE]: the IC50 on Mcl-1/Bim interaction was determined as 1.6 nM; in the assay with OPM-2 (16 h) it was 367 nM.
`CC(=O)N1C[C@@H]2O[C@H]([C@H]3CCC[C@H](C)[C@@H](C)S(=O)(=O)NC(=O)c4ccc5c(c4)N(C[C@@H]4CC[C@H]43)C[C@@]3(CCCc4cc(Cl)ccc43)CO5)O[C@@H]2C1` (stereo in doubt) [Example 16, (1S,3′R,6′R,7′R,11′S,12′R)-7′-((2r,3aR,6aS)-5-acetyltetrahydro-3aH-[1,3]dioxolo[4,5-c]pyrrol-2-yl)-6-chloro-11′,12′-dimethyl-3,4-dihydro-2H,15′H-spiro[naphthalene-1,22′-[20]oxa[13]thia[1,14]diazatetracyclo [14.7.2.0~3,6~.0~19,24~]pentacosa[16,18,24]trien]-15′-one 13′,13′-dioxide]: the IC50 amounted to 0.194 nM on Mcl-1/Bim interaction and 262 nM in the assay on OPM-2 (Homo sapiens, OPM-2, 16 h).
As to `C[C@@H]1[C@@H](C)CCC[C@H]([C@H]2OC[C@H](O)CO2)[C@@H]2CC[C@H]2CN2C[C@@]3(CCCc4cc(Cl)ccc43)COc3ccc(cc32)C(=O)NS1(=O)=O` [Example 13, (1S,3′R,6′R,7′S,11′S,12′R)-6-chloro-7′-(trans-5-hydroxy-1,3-dioxan-2-yl)-11′,12′-dimethyl-3,4-dihydro-2H,15′H-spiro[naphthalene-1,22′-[20]oxa[13]thia[1,14]diazatetracyclo [14.7.2.0~3,6~.0~19,24~]pentacosa[16,18,24]trien]-15′-one 13′,13′-dioxide], the IC50 at Mcl-1/Bim interaction is 0.555 nM; with OPM-2 (16 h), 635 nM.
In the case of `COCCN(C)[C@H]1CO[C@@H]([C@H]2CCC[C@H](C)[C@@H](C)S(=O)(=O)NC(=O)c3ccc4c(c3)N(C[C@@H]3CC[C@H]32)C[C@@]2(CCCc3cc(Cl)ccc32)CO4)OC1` [Example 72, (1S,3′R,6′R,7′S,11′S,12′R)-6-chloro-7′-(cis-5-((2-methoxyethyl)(methyl)amino)-1,3-dioxan-2-yl)-11′,12′-dimethyl-3,4-dihydro-2H,15′H-spiro[naphthalene-1,22′-[20]oxa[13]thia[1,14]diazatetracyclo [14.7.2.0~3,6~.0~19,24~]pentacosa[16,18,24]trien]-15′-one 13′,13′-dioxide], the IC50 at Mcl-1/Bim interaction was found to be 0.568 nM; with OPM-2 (16 h) it was 341 nM.
For the molecule `CCN(CC)[C@H]1CO[C@H]([C@H]2CCC[C@H](C)[C@@H](C)S(=O)(=O)NC(=O)c3ccc4c(c3)N(C[C@@H]3CC[C@H]32)C[C@@]2(CCCc3cc(Cl)ccc32)CO4)OC1` [Example 28, (1S,3′R,6′R,7′S,11′S,12′R)-6-chloro-7′-(trans-5-(diethylamino)-1,3-dioxan-2-yl)-11′,12′-dimethyl-3,4-dihydro-2H,15′H-spiro[naphthalene-1,22′-[20]oxa[13]thia[1,14]diazatetracyclo [14.7.2.0~3,6~.0~19,24~]pentacosa[16,18,24]trien]-15′-one 13′,13′-dioxide], the IC50 stood at 0.477 nM at Mcl-1/Bim interaction and 403 nM in the assay with OPM-2 (Homo sapiens, OPM-2, 16 h).
On to `C[C@@H]1[C@@H](C)CCC[C@@H]([C@H]2OC[C@@H](CN(C)C)O2)[C@@H]2CC[C@H]2CN2C[C@@]3(CCCc4cc(Cl)ccc43)COc3ccc(cc32)C(=O)NS1(=O)=O` (single isomer, unassigned) [Example 30], for which the IC50 stood at 5.12 nM at Mcl-1/Bim interaction and 2440 nM in the assay on OPM-2 (16 h).
Take `C[C@@H]1[C@@H](C)CCC[C@H](C2OCCO2)[C@@H]2CC[C@H]2CN2C[C@@]3(CCCc4cc(Cl)ccc43)COc3ccc(cc32)C(=O)NS1(=O)=O` [Example 4, (1S,3′R,6′R,7′S,11′S,12′R)-6-chloro-7′-(1,3-dioxolan-2-yl)-11′,12′-dimethyl-3,4-dihydro-2H,15′H-spiro[naphthalene-1,22′-[20]oxa[13]thia[1,14]diazatetracyclo [14.7.2.0~3,6~.0~19,24~]pentacosa[16,18,24]trien]-15′-one 13′,13′-dioxide]: the IC50 at Mcl-1/Bim interaction turned out to be 1.92 nM; in the assay on OPM-2 (16 h), 2150 nM.
For `C[C@@H]1[C@@H](C)CCC[C@H](C2OCCO2)[C@@H]2CC[C@H]2CN2C[C@@]3(CCCc4cc(Cl)ccc43)COc3ccc(cc32)C(=O)NS1(=O)=O` [Example 3, (1S,3′R,6′R,7′S,11′S,12′R)-6-chloro-7′-(1,3-dioxolan-2-yl)-11′,12′-dimethyl-3,4-dihydro-2H,15′H-spiro[naphthalene-1,22′-[20]oxa[13]thia[1,14]diazatetracyclo [14.7.2.0~3,6~.0~19,24~]pentacosa[16,18,24]trien]-15′-one 13′,13′-dioxide] the same measures were 1.28 nM and 926 nM.
Take `CN[C@H]1CO[C@@H]([C@H]2CCC[C@H](C)[C@@H](C)S(=O)(=O)NC(=O)c3ccc4c(c3)N(C[C@@H]3CC[C@H]32)C[C@@]2(CCCc3cc(Cl)ccc32)CO4)OC1` (relative stereo) [Example 42]: the IC50 at Mcl-1/Bim interaction came to 0.617 nM; with OPM-2 (16 h), 217 nM.
For `C[C@@H]1[C@@H](C)CCC[C@H]([C@H]2OC[C@H](N3C(=O)c4ccccc4C3=O)CO2)[C@@H]2CC[C@H]2CN2C[C@@]3(CCCc4cc(Cl)ccc43)COc3ccc(cc32)C(=O)NS1(=O)=O` (relative stereo) [Example 44] the same measures were 2.08 nM and above 33300 nM.
In the case of `CCN[C@H]1CO[C@H]([C@H]2CCC[C@H](C)[C@@H](C)S(=O)(=O)NC(=O)c3ccc4c(c3)N(C[C@@H]3CC[C@H]32)C[C@@]2(CCCc3cc(Cl)ccc32)CO4)OC1` [Example 27, (1S,3′R,6′R,7′S,11′S,12′R)-6-chloro-7′-(trans-5-(ethylamino)-1,3-dioxan-2-yl)-11′,12′-dimethyl-3,4-dihydro-2H,15′H-spiro[naphthalene-1,22′-[20]oxa[13]thia[1,14]diazatetracyclo [14.7.2.0~3,6~.0~19,24~]pentacosa[16,18,24]trien]-15′-one 13′,13′-dioxide], the IC50 came out at 0.37 nM on Mcl-1/Bim interaction and 155 nM in the assay with OPM-2 (Homo sapiens, OPM-2, 16 h).
With `C[C@@H]1[C@@H](C)CCC[C@@H]([C@H]2OC[C@@H](N3CC(Cl)C3)CO2)[C@@H]2CC[C@H]2CN2C[C@@]3(CCCc4cc(Cl)ccc43)COc3ccc(cc32)C(=O)NS1(=O)=O` (single isomer, unassigned) [Example 56], the figures for the 50% inhibitory concentration (IC50) at Mcl-1/Bim interaction and with OPM-2 (16 h) were 1.98 nM and 1900 nM, respectively.
Regarding `C[C@@H]1[C@@H](C)CCC[C@H]([C@H]2OC[C@@H](N(C)C3CC3)CO2)[C@@H]2CC[C@H]2CN2C[C@@]3(CCCc4cc(Cl)ccc43)COc3ccc(cc32)C(=O)NS1(=O)=O` [Example 70, (1S,3′R,6′R,7′S,11′S,12′R)-6-chloro-7′-(cis-5-(cyclopropyl(methyl)amino)-1,3-dioxan-2-yl)-11′,12′-dimethyl-3,4-dihydro-2H,15′H-spiro[naphthalene-1,22′-[20]oxa[13]thia[1,14]diazatetracyclo [14.7.2.0~3,6~.0~19,24~]pentacosa[16,18,24]trien]-15′-one 13′,13′-dioxide], the IC50 on Mcl-1/Bim interaction was 1.31 nM; in the assay with OPM-2 (16 h), 1580 nM.
For `C[C@@H]1[C@@H](C)CCCC(C2OCC(N)(CO)CO2)[C@@H]2CC[C@H]2CN2C[C@@]3(CCCc4cc(Cl)ccc43)COc3ccc(cc32)C(=O)NS1(=O)=O` (single isomer, unassigned) [Example 80] the same measures were 0.382 nM and 240 nM.
Turning to `C[C@@H]1[C@@H](C)CCC[C@@H]([C@H]2OC[C@@H](N3CCC3(C)C)CO2)[C@@H]2CC[C@H]2CN2C[C@@]3(CCCc4cc(Cl)ccc43)COc3ccc(cc32)C(=O)NS1(=O)=O` (single isomer, unassigned) [Example 64], the half-inhibitory concentration (IC50) on Mcl-1/Bim interaction came to 4.9 nM; with OPM-2 (16 h) it was 7490 nM.
